system: painted cells; test: Cell painting applications; type: cell-based; conditions: not given

Structure (SMILES)	utility for labeling and painting cells
Cc1ccc(CN2/C(=C/C=C/C3=[N+](Cc4ccc(C)cc4)c4ccccc4C3(C)C)C(C)(C)c3ccccc32)cc1.[Br-] [Compound No. 18]	good utility for painting cells
Cc1ccc(CN2/C(=C/C=C/C=C/C3=[N+](Cc4ccc(C)cc4)c4ccccc4C3(C)C)C(C)(C)c3ccccc32)cc1.[Br-] [Compound No. 19]	good utility for labeling and painting cells

same assay, conditions: 3 h time period

Structure (SMILES)	retention of dye in painted cells
Cc1ccc(CN2/C(=C/C=C/C=C/C3=[N+](Cc4ccc(C)cc4)c4ccccc4C3(C)C)C(C)(C)c3ccccc32)cc1.[Br-] [Compound No. 19]	good retention of dye

same assay, conditions: microscopy

Structure (SMILES)	localization of dye
Cc1ccc(CN2/C(=C/C=C/C=C/C3=[N+](Cc4ccc(C)cc4)c4ccccc4C3(C)C)C(C)(C)c3ccccc32)cc1.[Br-] [Compound No. 19]	localized intracellularly

system: live and dead cells; test: Cell viability detection with amine reactive viability dye by flow cytometry; type: cell-based; conditions: mix of live and dead cells
Method: Pipet 100 uL of prepared cells in biological buffer or media in a reaction vessel such as a tube or microwell plate. Add 100 uL of working solution to 100 uL cell sample; mix well and incubate at the room temperature for 15 minutes. Remove supernatant without disturbing the pellet. Wash the cells with PBS with bovine serum albumin (BSA) (range 0.2-10%) per well; centrifuge plate at 1000 rpm for 5 minutes; remove the supernatant by aspiration without disturbing the cell pellet.
Cells were killed by heat or treated with diamide or staurosporine inducers.

Structure (SMILES)	separation of live and dead cells
CC(C(=O)ON1C(=O)CCC1=O)c1ccc(C[N+]2=C(/C=C/C=C3\Oc4ccccc4N3Cc3ccc(CC(=O)ON4C(=O)CCC4=O)cc3)C(C)(C)c3cc(S(=O)(=O)[O-])ccc32)cc1 (stereo not drawn) [Compound No. 12]	excellent separation of live and dead cells
CC1(C)C(/C=C/C=C/C=C2\Oc3ccccc3N2Cc2ccc(CC(=O)ON3C(=O)CCC3=O)cc2)=[N+](Cc2ccc(CC(=O)ON3C(=O)CCC3=O)cc2)c2ccc(S(=O)(=O)[O-])cc21 [Compound No. 14]	can clearly distinguish live (low fluorescence) and dead cells (high fluorescence)

system: not listed separately; test: Fluorescence excitation and emission spectrum of the dyes; type: physicochemical; conditions: in Methanol

Em [nm]	Ex [nm]	absorption max [nm]	Structure (SMILES)
507	489		O=C(O)Cc1ccc(CN2/C(=C/C=C/c3oc4ccccc4[n+]3Cc3ccc(CC(=O)O)cc3)Oc3ccccc32)cc1.[Br-] [Compound No. 9]
508	490		O=C(Cc1ccc(CN2/C(=C/C=C/c3oc4ccccc4[n+]3Cc3ccc(CC(=O)ON4C(=O)CCC4=O)cc3)Oc3ccccc32)cc1)ON1C(=O)CCC1=O.[Br-] [Compound No. 10]
541	510		CC(C(=O)O)c1ccc(C[N+]2=C(/C=C/C=C3\Oc4ccccc4N3Cc3ccc(CC(=O)O)cc3)C(C)(C)c3cc(S(=O)(=O)[O-])ccc32)cc1 (stereo not drawn) [Compound No. 11]
541	510		CC(C(=O)ON1C(=O)CCC1=O)c1ccc(C[N+]2=C(/C=C/C=C3\Oc4ccccc4N3Cc3ccc(CC(=O)ON4C(=O)CCC4=O)cc3)C(C)(C)c3cc(S(=O)(=O)[O-])ccc32)cc1 (stereo not drawn) [Compound No. 12]
642	609	609	CC1(C)C(/C=C/C=C/C=C2\Oc3ccccc3N2Cc2ccc(CC(=O)ON3C(=O)CCC3=O)cc2)=[N+](Cc2ccc(CC(=O)ON3C(=O)CCC3=O)cc2)c2ccc(S(=O)(=O)[O-])cc21 [Compound No. 14]
679	650		CC1(C)C(/C=C/C=C/C=C2/N(Cc3ccc(CC(=O)O)cc3)c3ccccc3C2(C)C)=[N+](Cc2ccc(CC(=O)O)cc2)c2ccccc21.[Br-] [Compound No. 16]
574	551		Cc1ccc(CN2/C(=C/C=C/C3=[N+](Cc4ccc(C)cc4)c4ccccc4C3(C)C)C(C)(C)c3ccccc32)cc1.[Br-] [Compound No. 18]
674	650		Cc1ccc(CN2/C(=C/C=C/C=C/C3=[N+](Cc4ccc(C)cc4)c4ccccc4C3(C)C)C(C)(C)c3ccccc32)cc1.[Br-] [Compound No. 19]

same assay, conditions: solvent not given

Em / emission max [nm]	Ex Peak / excitation max [nm]	Structure (SMILES)
507	489	O=C(O)Cc1ccc(CN2/C(=C/C=C/c3oc4ccccc4[n+]3Cc3ccc(CC(=O)O)cc3)Oc3ccccc32)cc1.[Br-] [Compound No. 9]
507	489	O=C(Cc1ccc(CN2/C(=C/C=C/c3oc4ccccc4[n+]3Cc3ccc(CC(=O)ON4C(=O)CCC4=O)cc3)Oc3ccccc32)cc1)ON1C(=O)CCC1=O.[Br-] [Compound No. 10]
542	510	CC(C(=O)O)c1ccc(C[N+]2=C(/C=C/C=C3\Oc4ccccc4N3Cc3ccc(CC(=O)O)cc3)C(C)(C)c3cc(S(=O)(=O)[O-])ccc32)cc1 (stereo not drawn) [Compound No. 11]
541	510	CC(C(=O)ON1C(=O)CCC1=O)c1ccc(C[N+]2=C(/C=C/C=C3\Oc4ccccc4N3Cc3ccc(CC(=O)ON4C(=O)CCC4=O)cc3)C(C)(C)c3cc(S(=O)(=O)[O-])ccc32)cc1 (stereo not drawn) [Compound No. 12]
642	609	CC1(C)C(/C=C/C=C/C=C2\Oc3ccccc3N2Cc2ccc(CC(=O)ON3C(=O)CCC3=O)cc2)=[N+](Cc2ccc(CC(=O)ON3C(=O)CCC3=O)cc2)c2ccc(S(=O)(=O)[O-])cc21 [Compound No. 14]
642	609	CC1(C)C(/C=C/C=C/C=C2/N(Cc3ccc(CC(=O)O)cc3)c3ccccc3C2(C)C)=[N+](Cc2ccc(CC(=O)O)cc2)c2ccccc21.[Br-] [Compound No. 16]
574	551	Cc1ccc(CN2/C(=C/C=C/C3=[N+](Cc4ccc(C)cc4)c4ccccc4C3(C)C)C(C)(C)c3ccccc32)cc1.[Br-] [Compound No. 18]
674	650	Cc1ccc(CN2/C(=C/C=C/C=C/C3=[N+](Cc4ccc(C)cc4)c4ccccc4C3(C)C)C(C)(C)c3ccccc32)cc1.[Br-] [Compound No. 19]

— US20120088262A1, “CYANINE COMPOUNDS, CONJUGATES AND METHOD OF USE” (Millipore Corporation, priority 2010, published 2012)
